# Measurements published in patent EP2581085A1, “Pharmaceutical composition for nasal administration of metopimazine” (priority 2011, dated 2013).
# Where two headings read alike, the source gives them in different places.
# Legend:
# [1] = Local tolerance study in rabbit, nasal administration for 7 days, histology of the anatomical piece; type: in vivo, lapin; set-up: key: Non renseigné : absent ou négligeable; +: faible intensité; ++: Intensité modérée; +++: Intensité marquée; conditions: 7 days of Formule 1 200µLx3/J
# Procedure: La tolérance a été étudiée chez le lapin après administration de 2mg de Formule 1 X3/j pendant 7 jours. Chaque lapin était son propre contrôle, puisqu'une narine recevait le Vogalène pendant que la seconde recevait une solution de sérum physiologique. Après l'exposition, les lapins sont sacrifiés afin de récupérer et d'étudier la pièce anatomique.
# [2] = Pharmacokinetic study in rabbit after nasal or IV administration (plasma MPZ and AMPZ by HPLC with fluorescence detection); type: in vivo, lapin
# Procedure: Le passage par voie nasale de la métopimazine a été caractérisé chez l'animal dans un modèle de référence qu'est le lapin. Les lapins utilisés étaient des femelles de race néozélandaises provenant de chez Charles River (poids 3,5 kg). La formulation testée chez le lapin a été la suivante: • Formule 1 : • Métopimazine : 10mg • NaCl : QSP 300mOsm • Tampon Citrate : QSP pH 5.5 • Eau : QSP 1ml
# La posologie administrée au lapin a été calculée à partir de la dose pédiatrique soit 1 mg / kg / jour en 3 prises. Le poids des lapins étant de 3,5 kg, la dose par prise est d'environ 1 mg. La dose est donc administrée par instillation de 50 µl dans chaque narine d'une solution à 10 mg/ml.
# Avant toute manipulation, le lapin est placé dans des cages de contention. Un cathéter est introduit sur chaque oreille du lapin au niveau de la veine marginale et d'une artère. Le cathéter veineux a permis d'injecter le soluté de remplissage (sérum physiologique) et le cathéter artériel a servi aux différents prélèvements sanguins tout au long de la manipulation. Les prélèvements ont été réalisés à temps réguliers : 0, 5, 10, 20, 30, 60, 120, 240 et 480 minutes. La préparation est administrée aux lapins en position supinale. Les lapins sont être maintenus dans cette position au moins 5 minutes après administration pour assurer le contact entre l'épithélium et la formulation. La solution nasale est administrée par instillation d'un volume de 50µL avec une micropipette dans chaque narine du lapin. Le volume du prélèvement est d'environ 3 mL. Après 2 h, les lapins sont placés dans leur cage avec un libre accès à la nourriture et à l'eau dans l'attente des prélèvements suivants. Le dosage est réalisé par CLHP avec détection par fluorescence en utilisant la méthode décrite par Angelo et al. J of Chrom, 496; 472-477, (1989). L'appareil de dosage est constitué d'une pompe Jasco, d'un injecteur Kontron et d'un détecteur de fluorescence Varian Prostar.
# L'étude pharmacocinétique a été conduite sur le logiciel PK Solutions 2.
# La formule 1 a été comparée à la voie IV. La métopimazine a été administrée dans la veine marginale de l'oreille. Les concentrations plasmatiques de la MPZ et l'AMPZ sont représentées également dans la figure 2.
# Selon le même protocole, une autre formulation a été testée. • Formule 2 : • Métopimazine : 10mg • DMβCD : 21mg • NaCl : QSP 300mOsm • Tampon Citrate : QSP pH 5.5 • Eau : QSP 1ml
# [3] = hepatic first-pass effect, cited from earlier work
# [4] = sampling 14h after last administration, one rabbit and one sample (A-D)
# [5] = sampling 70h after last administration, each column = one rabbit and one sample (A-C)
# [6] = MPZ in plasma after IV administration of métopimazine, lapin, n=2
structure (smiles),measurement,setting,value
"CS(=O)(=O)c1ccc2c(c1)N(CCCN1CCC(C(N)=O)CC1)c1ccccc1S2 [MPZ, métopimazine]",Hyperplasie des cellules de réserve,[1]; [4],+
same,Inflammation dans le chorion,[1]; [4],+
same,Perte des cellules caliciformes,[1]; [4],+
same,Hyperplasie des cellules de réserve,[1]; [5],+ and ++
same,Inflammation épithéliale,[1]; [5],+ and + avec eosinophiles et lymphocytes
same,Perte des cellules caliciformes,[1]; [5],+++ and + and ++
same,Perte des cils,[1]; [5],+++ and + and ++
same,t max,"[2]; MPZ in plasma after IV administration of métopimazine (veine marginale de l'oreille), lapin, n=2, read-out: t max (converted)",5 min
same,Cmax,[2]; [6],17.4 ng/mL
same,half-life,[2]; [6],72 min
same,AUC,"[2]; MPZ in plasma after IV administration of métopimazine, lapin, n=2, read-out: AUC (converted)",23.4 ng·h/mL
same,t max,"[2]; MPZ in plasma after nasal administration, 50 µl in each nostril of a 10 mg/ml solution (about 1 mg), lapin, n=2, read-out: t max (converted)",5 min
same,Cmax,"[2]; MPZ in plasma after nasal administration, about 1 mg, lapin, n=2",9.2 ng/mL
same,bioavailability,"[2]; plasma, 1 mg, lapin, nasal route compared with IV, b45 = formulation tested (Formule 1), b50 = Formule 2, read-out: biodisponibilité de la MPZ par voie nasale",~50%
same,biodisponibilité par voie orale,[3]; oral route,"22,3%"
same,biodisponibilité par voie rectale,[3]; rectal route,"19,5%"
"CS(=O)(=O)c1ccc2c(c1)N(CCCN1CCC(C(=O)O)CC1)c1ccccc1S2 [AMPZ, acide de métopimazine]",t max,[2]; in vivo,10 min
same,AUC,"[2]; in vivo, iv",5765 ng/mL/min
same,C max,"[2]; in vivo, iv",40 ng/mL
same,T1/2,"[2]; in vivo, iv",105 min
same,t max,"[2]; in vivo, iv",20 min
